“Also recorded” adds a separate entry of the source.
Experiments:
HCMV [1] = experiment: Viral attachment and internalization assay (pp65 immunofluorescence); assay type: cell-based, Human cytomegalovirus
Protocol: (A) HEL cells were pretreated with PBS (20 min 4° C.), IMC-3G3 (2 h, 37° C., 10 μg/ml), or PDGF-AA (20 min, 4° C., 10 ng/ml) prior to infection with HCMV (MOI of 1, 4° C., 1 h). Cells were returned to 37° C. for 30 minutes, and processed for pp65^HCMV and PDGFRα double immunofluorescence. […] All conditions were assayed in triplicate cultures. One hundred cells in 4 low magnification fields were counted. Bars represent SD.
Viral Attachment and Internalization Assays. Mouse fibroblasts and HEL cells (72 hours following siRNA transfections) were incubated with HCMV (MOI of 0.5) or mock treated for 1 hour at 4° C., after which cells were returned to 37° C. for 15, 30, or 60 min. Cells were fixed using methanol (20 min) and processed for pp65 immunofluorescence. Four low power fields were counted for each condition and pp65 positive were recorded for each 100 cells. Internalization assays were repeated twice.

PI3-K/Akt signaling = assay type: cell-based, human
Protocol: (A) HEL cells stimulated with HCMV or PDGF-AA were subjected to immunoprecipitation and western blot analyses with indicated antibodies. (B) Phospho-PDGFRα ELISA of cells+/−pretreatment with IMC-3G3 (10 μg/ml, 2 h) followed by HCMV (MOI=1) or PDGF (10 ng/ml) for 10 min. Mean values (n=6)±S.D are shown. (C) Western blot of HEL mock, HCMV, or PDGF-AA stimulated (10 min), +/−IMC-3G3 (2 μg/ml) or Gleevec® (Imatinib) (100 nM). The same membrane was used for p-Akt^Ser 473 and Akt.
HEL cells pretreated with blocking reagents (as indicated; 30 min, 37 C) were stimulated for 10 min with HCMV, PDGF-AA (5 ng/ml), or mock-treated. Cell lysates were collected in RIPA buffer (supplemented with protease and phosphatase inhibitors) and subjected to Western blot analysis.
For stimulation experiments, cells were serum-starved for 24 h, followed by stimulation with HCMV (MOI of 0.5), PDGF-AA (5-10 ng/ml, from R&D Systems), or mock, for 10 minutes. In some cases, cells were pre-treated with IMC-3G3 (ImClone Inc.) at 10 g/ml (2 or 12 h) or Gleevec® (100 nM, 1 h) prior to HCMV exposure. Cell lysates were analyzed by SDS-PAGE. Antibodies used were as follows: polyclonal anti-PDGFRα ( 1/500), phosphor-Tyrosine clone 4G10 ( 1/1000), and monoclonal anti-p85 PI3-K ( 1/1000), (Upstate Biotechnology), anti HCMV IE1 MAB810 (Chemicon; 1/1000), anti HCMV pp65 (Novocastra, 1/1000), anti-phosphor-PDGFRα ( 1/500, pTyr 754), anti-phosphor-Akt (Ser 473, 1/1000) and total Akt ( 1/1000; all from Cell Signaling). Anti-actin polyclonal control antibody was used ( 1/500, Sigma). Immunoprecipitations were performed using protein G (Pierce) according to manufacturer's instructions.

HCMV [2] = experiment: HCMV pp65 western blot in HEL cells; assay type: cell-based, Human cytomegalovirus; conditions: antibody 10 ng/ml 30 min or AG 1295 20 pM, Towne HCMV 10 min at 37 C
Protocol: HEL cells were transfected with siRNA against the PI3K p110α catalytic subunit (a mixture of 4 RNAi oligos, “smart pool” from Dharmacon) or non-targeting, control siRNA (Dharmacon) for 48 h prior to infection with HCMV (MOI of 1) for 1 hour. Cells were washed and cultured for 2 h-6 days. a. […] The mean number of IE1 positive cells is reduced by ˜50% in the PI3 Kp110α knockdown cultures—panel c**, p<0.01. PI3K p110α knock down is also significant (b, left panels, red fluorescence). However, unlike cells that lack a functional PDGFRα, PI3K p110α knock down cells are capable of producing infectious virus as shown by IE1 staining of the secondary infected cultures (panel d). A 10% decrease in infectious virus production in the cells treated with p110α siRNA is insignificant*, bars represent SD, […], panel c. Experiments were repeated twice, all conditions were assayed in triplicate. Similar results were obtained with both Towne-infected cultures (illustrated in this figure) and CMV-GFP.
Upper panel: HEL cells pretreated with anti-human PDGFRα antibody (10 ng/ml, for 30 min, clone AF-307-NA from R&D; lanes 1 and 4) or with AG 1295 (lane 3, […], from Calbiochem) were stimulated with Towne HCMV (lanes 2-4) or Mock infected (lane 1) for 10 min at 37 C. […]
Western Blot, Immunoprecipitation, and Immunofluorescence analyses. […] Cell lysates were analyzed by SDS-PAGE. […]

HCMV [3] = experiment: IE1 immunofluorescence of HCMV infected HEL cells; assay type: cell-based, Human cytomegalovirus; conditions: HEL; antibody 1 h or AG1295 15 min before HCMV; 1 h at 37 C plus additional 6 h
Protocol: HEL cells were transfected with PDGFRα siRNA (smart pool, Dharmacon) or non-targeting control siRNA (Dharmacon) for 48-60 hours when maximum protein knockdown is achieved (panels a and b. Also see FIG. 3d). Cells were then infected with Towne, AD169, TR, or CMV-GFP strains of HCMV for 1 hour, washed and returned to 37° C. in complete growth media. Supernatants obtained from these cultures were used in subsequent assays measuring production of infectious virus as described below. […] Cultures infected with supernatants from GFP-CMV treated cells were monitored daily under the fluorescence microscope. Over 40% of the control siRNA treated cells expressed CMV-GFP 1 day post infection (c, 1 dpi) and this number increased to 100% by day 6 (c, 6 dpi). Note the appearance of “plaques”-like groups of cells in control siRNA transfected cells (c, 3 and 6 dpi). […]
Measurements of Infectious Virus Production. […] A duplicate set of cultures was analyzed by immunofluorescence at 12 hours post infection (hpi) to assess percent of IE1 positive cells, as a measure of “primary infection”. […] 12 hpi cells were stained for IE1 and IE1 positive cells were counted amongst a total of 100 cells/low magnification microscopic field, 4 fields/condition. […] Where indicated, CMV-GFP infected cells were monitored daily under fluorescence microscope. […]

HCMV [4] = experiment: HCMV IE1 / viral gene expression, western blot of infected cells; assay type: cell-based, Human cytomegalovirus; conditions: for HCMV IE1 gene expression: IMC-3G3 10 μg/ml 12 h or Gleevec 100 nM 1 h pre-treatment, western blot
Protocol: (A) pp65 immunofluorescence after HCMV treatment (1 h, 4° C.) followed by shifting to 37° C. for indicated times. Rows represent (top to bottom): HEL, PDGFRα null fibroblasts, parental fibroblasts, null fibroblasts overexpressing hPDGFRα, HEL transfected with control, or PDGFRα siRNA. Nuclei were stained with DAPI. (B) Average±S.D. pp65 positive/100 cells counted in triplicate from (A). (C) Mock or HCMV infected cells were analyzed by western blotting with the indicated antibodies. Lanes 1-4 indicate HEL, 325S, PDGFRα null and PDGFRα null over-expressing hPDGFRα, respectively. (D) HEL transfected with control or PDGFRα siRNA were mock (lanes 1) or HCMV-treated (lanes 2) and subjected to western blots with indicated antibodies. (E) Western blot of HEL and U87 lysates after infection with mock (lanes 1), HCMV (lanes 2), or HCMV pretreated with IMC-3G3 (10 μg/ml, 12 h, lanes 3) or Gleevec (100 nM, 1 h, lanes 4). (F) PDGFRα siRNA treated cells infected with indicated HCMV strains and immunostained for IE1 12 hpi (primary infection). 6 dpi, supernatants were used to infect naïve HEL cells, followed by IE1 immunostaining and quantification (secondary infection). Average (n=6) values±S.D. are shown.
HUVEC cells were pre-treated with IMC-3G3 (10 μg/ml, Imclone, 12 h), or Gleevec (100 nM, 1 h) prior to HCMV or mock infection. 12 hours post-infection, cell lysates were analyzed by western blot for the presence of IE1 gene product. […] The same blot was stripped and re-probed for actin (lower panel). Lane designation is 1—Mock, 2—HCMV, 3—IMC-3G3+HCMV, 4—Gleevec+HCMV.
Upper panel: HEL cells pretreated with anti-human PDGFRα antibody (10 ng/ml, for 30 min, clone AF-307-NA from R&D; lanes 1 and 3) or with AG 1295 (lane 4, […], from Calbiochem) were stimulated with Towne HCMV (lanes 2 through 4) or Mock infected (lane 1) for 10 min at 37 C. Cells were washed and further incubated for 2 h at 37 C (to allow expression of IE1 gene product). Afterwards, cells were harvested in RIPA buffer and processed for western blotting as described.
Western Blot, Immunoprecipitation, and Immunofluorescence analyses. For stimulation experiments, cells were serum-starved for 24 h, followed by stimulation with HCMV (MOI of 0.5), PDGF-AA (5-10 ng/ml, from R&D Systems), or mock, for 10 minutes. In some cases, cells were pre-treated with IMC-3G3 (ImClone Inc.) at 10 µg/ml (2 or 12 h) or Gleevec® (100 nM, 1 h) prior to HCMV exposure. Cell lysates were analyzed by SDS-PAGE. Antibodies used were as follows: polyclonal anti-PDGFRα ( 1/500), phosphor-Tyrosine clone 4G10 ( 1/1000), and monoclonal anti-p85 PI3-K ( 1/1000), (Upstate Biotechnology), anti HCMV IE1 MAB810 (Chemicon; 1/1000), anti HCMV pp65 (Novocastra, 1/1000), anti-phosphor-PDGFRα ( 1/500, pTyr 754), anti-phosphor-Akt (Ser 473, 1/1000) and total Akt ( 1/1000; all from Cell Signaling). Anti-actin polyclonal control antibody was used ( 1/500, Sigma). Immunoprecipitations were performed using protein G (Pierce) according to manufacturer's instructions. For immunofluorescence, monoclonal HCMV pp65 and phosphor-PDGFRα (p-Tyr 754, Santa Cruz Biotechnology) were used, overnight at 4° C., followed by 1 hour incubation with secondary antibodies conjugated to Alexa-488, or Alexa 568 ( 1/5,000, Molecular Probes). Nuclei were counterstained with DAPI. Co-immunoprecipitation experiments were performed using full length soluble purified recombinant gB (gB 680, from Don Diamond, City of Hope, Calif.) and detergent soluble extract of HEL cells generated in lysis buffer (1% NP-40, 75 mM NaCl and 50 mM Tris-HCl). 500 μg of protein from total cell extract was incubated with 25 μg of gB 680 in lysis buffer in the presence of an anti-gB (Virusys, Inc) or anti-PDGFRα (R&D) antibody overnight at 4° C. Immune complexes were recovered with protein A-Sepharose beads (2 hr incubation), denatured and separated on SDS-PAGE for western blot with anti-gB (Virusys, Inc) or anti-PDGFRα (Cell Signaling Technology) antibodies.

[5] = human epithelial, endothelial, and fibroblast cells

## PDGF-AA: the authentic (genuine) PDGFRα ligand, from R&D Systems [reference compound]
HCMV [1]; HEL cells harboring endogenous PDGFRα, pretreatment with PDGF-AA
  HCMV entry: significantly decreased; also recorded: competitively inhibited
HCMV [1]; HEL cells, IMC-3G3 2 h, 37° C., 10 μg/ml, PDGF-AA 20 min, 4° C., 10 ng/ml, HCMV MOI of 1, 30 min at 37° C.
  inhibition of HCMV entry (pp65 positive cells): ~30%

## Cc1cc2ncc(-c3ccccc3)nc2cc1C [AG1295, reference compound]
PI3-K/Akt signaling; HEL pretreated with blocking reagents 30 min, 37 C, stimulated 10 min with HCMV or PDGF-AA 5 ng/ml
  p-Akt levels induced by either PDGF or HCMV: decreased
HCMV [2]
  amount of pp65 (anti-pp65 blot): decrease
HCMV [3]
  IE1 levels: significant decrease

## Cc1ccc(NC(=O)c2ccc(CN3CCN(C)CC3)cc2)cc1Nc1nccc(-c2cccnc2)n1 [Gleevec, 4-[(4-methylpiperazin-1-yl)methyl]-N-[4-methyl-3-[(4-pyridin-3-ylpyrimidin-2-yl)amino]-phenyl]-benzamide, reference compound]
HCMV [4]; HEL cells
  HCMV IE1 gene expression: completely inhibited
HCMV [4]; HUVEC, pre-treated with IMC-3G3 10 μg/ml 12 h or Gleevec 100 nM 1 h, western blot 12 hours post-infection
  HCMV IE1 expression: completely inhibited
HCMV [4]; U87 glioma cells
  HCMV IE1 gene expression: completely inhibited
HCMV [4]; [5]
  HCMV gene expression: completely inhibited
HCMV [1]; [5]
  HCMV viral internalization: completely inhibited
PI3-K/Akt signaling; HEL, 10 min stimulation, IMC-3G3 2 μg/ml or Gleevec 100 nM, p-Akt Ser 473
  Akt phosphorylation induced by either HCMV or PDGF-AA: abolished
